We go through 1 sequence from patent publication US20170000866A1, “METHOD FOR EMULSIFYING A TRIEPITOPE PEPTIDE WITH MONTANIDE AND KITS FOR PERFORMING THE SAME” (VAXON BIOTECH, priority 2013, published 2017).

Ends that are not written are not given here.

A short description of the series: Vx006 solubilisation in solvents for injection. The format is physicochemical. Particulars: in water for injection. As to the method: For vaccinating a patient, 1 ml of solvent is added on the lyocake to resuspend the peptide, 0.7 ml of peptide in solution is then loaded in a silicone free syringe and 0.7 ml of MONTANIDE ISA51VG in a second syringe. Both syringes are then connected to the I-connector for the emulsification protocol.
According to SEPPIC recommendations, to the fact that the emulsion is performed for human administration (preventing the use of solvents as DMSO etc.), results presented in Example 1 above and solubility prediction, Vx006 was initially diluted in saline buffer. Two saline solvents were tested, NaCl 0.9% and PBS. […] Moreover, the addition of several solvents developed by Seppic and compatible with injection in humans and emulsion with MONTANIDE were tested during the Vx006 manufacturing development.
The vial can be gently agitated to accelerate the dissolution, if necessary. The dissolution can also be performed at cold temperature (0-10° C.).

Regarding YLQVNSLQTVYLEYRQVPVYLEEITGYL [Vx006], the Solubility result is listed as “perfectly soluble” and the “pH of the solubilised peptide” value was “around 7”.
